Assay results from patent publication US11053204B2, “Pyrimidinyloxy benzene derivatives as herbicides” (FMC Corporation, priority 2015, dated 2021).

Columns and labels:
Format in all cases: in vivo
[1] = test system: ryegrass, Italian (Italian ryegrass, Lolium multiflorum); experiment: Test C preemergence, plant response rating; details: Preemergence
Method in brief: (§1)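 Visual injury score, 0 = no effect, 100 = complete control, assigned against untreated controls after 13 to 15 d in the greenhouse. Compounds were applied in a surfactant-containing non-phytotoxic solvent mix, preemergence to seeded loam/sand or silt loam soil, or postemergence to 1- to 4-leaf plants (2 to 18 cm).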

[2] = test system: crabgrass, large (large crabgrass, Digitaria sanguinalis); experiment: Test C preemergence, plant response rating; details: Preemergence
Method in brief: as §1

[3] = test system: wheat (winter wheat, Triticum aestivum); experiment: Test C preemergence, plant response rating; details: Preemergence
Method in brief: as §1

[4] = test system: nutsedge, yellow (yellow nutsedge, Cyperus esculentus); experiment: Test C preemergence, plant response rating; details: Preemergence
Method in brief: as §1

corn (Zea mays) = experiment: Test C preemergence, plant response rating; details: Preemergence
Method in brief: as §1

[5] = test system: lambsquarters (Chenopodium album); experiment: Test C preemergence, plant response rating; details: Preemergence
Method in brief: as §1

[6] = test system: waterhemp (common waterhemp, Amaranthus rudis); experiment: Test C preemergence, plant response rating; details: Preemergence
Method in brief: as §1

[7] = test system: velvetleaf (Abutilon theophrasti); experiment: Test C preemergence, plant response rating; details: Preemergence
Method in brief: as §1

[8] = test system: foxtail, giant (giant foxtail, Setaria faberii); experiment: Test C preemergence, plant response rating; details: Preemergence
Method in brief: as §1

[9] = test system: ragweed (common ragweed, Ambrosia elatior); experiment: Test C preemergence, plant response rating; details: Preemergence
Method in brief: as §1

[10] = test system: morningglory (Ipomoea coccinea); experiment: Test C preemergence, plant response rating; details: Preemergence
Method in brief: as §1

soybean (Glycine max) = experiment: Test C preemergence, plant response rating; details: Preemergence
Method in brief: as §1

[11] = test system: oilseed rape (Brassica napus); experiment: Test C preemergence, plant response rating; details: Preemergence
Method in brief: as §1

[12] = test system: blackgrass (Alopecurus myosuroides); experiment: Test C preemergence, plant response rating; details: Preemergence
Method in brief: as §1

[13] = test system: wheat (winter wheat, Triticum aestivum); experiment: Test C postemergence, plant response rating
Method in brief: as §1

[14] = test system: velvetleaf (Abutilon theophrasti); experiment: Test C postemergence, plant response rating
Method in brief: as §1

[15] = test system: barnyardgrass (Echinochloa crus-galli); experiment: Test C postemergence, plant response rating; details: for Barnyardgrass plant response rating: scale 0 to 100 (0 no effect, 100 complete control)
Method in brief: as §1

[16] = test system: foxtail, giant (giant foxtail, Setaria faberii); experiment: Test C postemergence, plant response rating; details: for Foxtail, Giant plant response rating: scale 0 to 100 (0 no effect, 100 complete control)
Method in brief: as §1

[17] = test system: morningglory (Ipomoea coccinea); experiment: Test C postemergence, plant response rating; details: for Morningglory plant response rating: scale 0 to 100 (0 no effect, 100 complete control)
Method in brief: as §1

[18] = test system: oilseed rape (Brassica napus); experiment: Test C postemergence, plant response rating; details: for Oilseed Rape plant response rating: scale 0 to 100 (0 no effect, 100 complete control)
Method in brief: as §1

[19] = test system: blackgrass (Alopecurus myosuroides); experiment: Test C postemergence, plant response rating; details: for Blackgrass plant response rating: scale 0 to 100 (0 no effect, 100 complete control)
Method in brief: as §1

[20] = 125 g ai/ha, scale 0 to 100 (0 no effect, 100 complete control)

N#CC(CCCC(F)(F)F)c1ccccc1Oc1ncc(Cl)cn1 (stereo not shown) [Compound 144]
10: Plant response rating, Ragweed ([9]; 125 g ai/ha, scale of 0 to 100) | Plant response rating, Morningglory ([10]; 62 g ai/ha, scale 0 to 100) | Plant response rating, Blackgrass ([12]; 31 g ai/ha, scale 0 to 100) | Barnyardgrass plant response rating ([15]; 62 g ai/ha) | Barnyardgrass plant response rating ([15]; 125 g ai/ha) | Plant response rating, Foxtail, Giant ([16]; 31 g ai/ha, scale 0 to 100) | Plant response rating, Blackgrass ([19]; 16 g ai/ha, scale of 0 to 100) | Plant response rating, Blackgrass ([19]; 31 g ai/ha, scale 0 to 100)
75: Plant response rating, Lambsquarters ([5]; 125 g ai/ha, scale of 0 to 100)
90: Plant response rating, Oilseed Rape ([11]; 125 g ai/ha, scale of 0 to 100)
65: Plant response rating, Lambsquarters ([5]; 62 g ai/ha, scale 0 to 100) | Velvetleaf plant response rating [14, 20]
45: Plant response rating, Velvetleaf ([7]; 125 g ai/ha, scale of 0 to 100)
0: Plant response rating, Ryegrass, Italian ([1]; 31 g ai/ha, scale 0 to 100) | Plant response rating, Ryegrass, Italian ([1]; 62 g ai/ha, scale 0 to 100) | Plant response rating, Wheat ([3]; 62 g ai/ha, scale 0 to 100) | Plant response rating, Corn (corn (Zea mays); 16 g ai/ha, scale 0 to 100) | Plant response rating, Corn (corn (Zea mays); 31 g ai/ha, scale 0 to 100) | Plant response rating, Velvetleaf ([7]; 31 g ai/ha, scale 0 to 100) | Plant response rating, Ragweed ([9]; 31 g ai/ha, scale 0 to 100) | Plant response rating, Ragweed ([9]; 62 g ai/ha, scale 0 to 100) | Plant response rating, Morningglory ([10]; 31 g ai/ha, scale 0 to 100) | Plant response rating, Soybean (soybean (Glycine max); 31 g ai/ha, scale 0 to 100) | Plant response rating, Oilseed Rape ([11]; 31 g ai/ha, scale 0 to 100)
50: Morningglory plant response rating ([17]; 62 g ai/ha)
40: Plant response rating, Lambsquarters ([5]; 31 g ai/ha, scale 0 to 100) | Plant response rating, Blackgrass ([12]; 62 g ai/ha, scale 0 to 100) | Foxtail, Giant plant response rating ([16]; 125 g ai/ha)
15: Plant response rating, Velvetleaf ([7]; 62 g ai/ha, scale 0 to 100) | Wheat plant response rating [13, 20] | Blackgrass plant response rating ([19]; 62 g ai/ha) | Blackgrass plant response rating ([19]; 125 g ai/ha)
30: Plant response rating, Corn (corn (Zea mays); 125 g ai/ha, scale of 0 to 100) | Plant response rating, Soybean (soybean (Glycine max); 62 g ai/ha, scale 0 to 100) | Plant response rating, Blackgrass ([12]; 125 g ai/ha, scale of 0 to 100) | Plant response rating, Velvetleaf ([14]; 31 g ai/ha, scale 0 to 100) | Foxtail, Giant plant response rating ([16]; 62 g ai/ha) | Plant response rating, Morningglory ([17]; 16 g ai/ha, scale of 0 to 100)
70: Plant response rating, Nutsedge, Yellow ([4]; 125 g ai/ha, scale of 0 to 100) | Oilseed Rape plant response rating ([18]; 62 g ai/ha)
100: Plant response rating, Crabgrass, Large ([2]; 125 g ai/ha, scale of 0 to 100) | Plant response rating, Crabgrass, Large ([2]; 62 g ai/ha, scale 0 to 100) | Plant response rating, Waterhemp ([6]; 125 g ai/ha, scale of 0 to 100) | Plant response rating, Foxtail, Giant ([8]; 125 g ai/ha, scale of 0 to 100) | Plant response rating, Foxtail, Giant ([8]; 62 g ai/ha, scale 0 to 100)
85: Plant response rating, Crabgrass, Large ([2]; 16 g ai/ha, scale 0 to 100) | Plant response rating, Foxtail, Giant ([8]; 31 g ai/ha, scale 0 to 100) | Oilseed Rape plant response rating ([18]; 125 g ai/ha)
98: Plant response rating, Crabgrass, Large ([2]; 31 g ai/ha, scale 0 to 100) | Plant response rating, Waterhemp ([6]; 31 g ai/ha, scale 0 to 100) | Plant response rating, Waterhemp ([6]; 62 g ai/ha, scale 0 to 100)
5: Plant response rating, Wheat ([3]; 125 g ai/ha, scale of 0 to 100) | Plant response rating, Corn (corn (Zea mays); 62 g ai/ha, scale 0 to 100) | Plant response rating, Oilseed Rape ([11]; 62 g ai/ha, scale 0 to 100) | Plant response rating, Blackgrass ([12]; 16 g ai/ha, scale 0 to 100) | Plant response rating, Wheat ([13]; 16 g ai/ha, scale of 0 to 100) | Plant response rating, Wheat ([13]; 31 g ai/ha, scale 0 to 100) | Plant response rating, Barnyardgrass ([15]; 16 g ai/ha, scale of 0 to 100) | Plant response rating, Barnyardgrass ([15]; 31 g ai/ha, scale 0 to 100) | Plant response rating, Foxtail, Giant ([16]; 16 g ai/ha, scale of 0 to 100)
35: Plant response rating, Oilseed Rape ([18]; 16 g ai/ha, scale of 0 to 100) | Plant response rating, Oilseed Rape ([18]; 31 g ai/ha, scale 0 to 100)
20: Plant response rating, Nutsedge, Yellow ([4]; 31 g ai/ha, scale 0 to 100) | Plant response rating, Morningglory ([10]; 125 g ai/ha, scale of 0 to 100) | Plant response rating, Morningglory ([17]; 31 g ai/ha, scale 0 to 100)
25: Plant response rating, Velvetleaf ([14]; 16 g ai/ha, scale of 0 to 100)
60: Plant response rating, Ryegrass, Italian ([1]; 125 g ai/ha, scale of 0 to 100) | Plant response rating, Nutsedge, Yellow ([4]; 62 g ai/ha, scale 0 to 100) | Plant response rating, Soybean (soybean (Glycine max); 125 g ai/ha, scale of 0 to 100) | Morningglory plant response rating ([17]; 125 g ai/ha)
